Assay [1] concerns P. falciparum merozoites. Further details: method as in earlier work. To be noted: live cell imaging; ref 11 (Dans et al 2020); cited from earlier work.
The subject of assay [2] is P. berghei sporozoites invading HC-04 human liver cells. In words: In vitro liver invasion assay. It counts as cell-based, Plasmodium berghei. As for the experimental part:
P. berghei ANKA constitutively expressing mCherry[82] was used for the in vitro liver stage invasion assay. Animals used for the generation of the sporozoites were 4- to 5-week-old male Swiss Webster mice and were purchased from the Monash Animal Services (Melbourne, Victoria, Australia) and housed at 22 to 25 °C on a 12 h light/dark cycle with 40-70% humidity at the School of Biosciences, The University of Melbourne, Australia. All animal experiments were in accordance with the Prevention of Cruelty to Animals Act 1986, the Prevention of Cruelty to Animals Regulations 2008, and National Health and Medical Research Council (2013) Australian code for the care and use of animals for scientific purposes. These experiments were reviewed and permitted by the Melbourne University Animal Ethics Committee (2015123).
Infections of naïve Swiss mice were carried out by intraperitoneal (IP) inoculation obtained from a donor mouse between the first and fourth passages from cryopreserved stock. Parasitemia was monitored by Giemsa smear and exflagellation quantified 3 days post-infection. A. stephensi mosquitoes were allowed to feed on anaesthetised mice once the exflagellation rate was assessed between about 12 to 15 exflagellation events per 1 × 10^4 RBCs. Salivary glands of infected mosquitoes (days 17 to 24 post-infection) were isolated by dissection and parasites placed into RPMI-1640 media.
This was performed essentially as described[83] with the minor variations outlined in the Supplementary Information. […]
In vitro liver invasion assays. This was performed essentially as described16 with the following variations. In vitro human liver HCO4 cells (ATCC) were seeded at 1 × 10^5 cells/mL, grown for 24 h and then infected for 2 h with 30,000 Pb ANKA mCherry […]
expressing sporozoites. Following fixation, an IFA with anti -CSP antibody (1:500) followed by anti-mouse Alexafluor 488 (1:1 ,000; Invitrogen, Carlsbad, CA, USA) labels uninvaded parasites. Fluorescence signal was assessed using an Olympus CKX41 epifluorescence microscope. […]
Gametogenesis was then triggered by the addition of 10 μL ookinete medium (gametocyte culture medium supplemented with 100 μM xanthurenic acid and 0.27 µg/mL Cy3-labelled anti-Pfs25 antibody) to each well at room temperature. Plates were then cooled on a metal block at 4°C for four min to ensure even cooling and then stabilised for a further 4 min at 28°C. At 20 min post-induction, male gametogenesis was recorded in each well by automated brightfield microscopy using a x4 objective lens and 1.5x magnifier (x6 effective magnification). Afterward, plates were incubated in the dark at room temperature for 24 h and then female gametogenesis recorded in each well by automated fluorescence microscopy (anti-Pfs25-positive cells). All experiments were performed in quadruplicate with DMSO and cabamiquine (DDD107498)17 as negative and positive controls respectively. All data was evaluated in comparison to the positive and negative controls to calculate percentage inhibition of male and female gametocytes, and dose response analysis and IC50 calculation performed using GraphPad Prism. […]
The pellet was subjected to five

Assay [3] concerns P. falciparum NF54 gametocytes fed to An. stephensi. In words: Standard membrane feeding assay (London School of Hygiene and Tropical Medicine). The class given is in vivo, Plasmodium falciparum. To be noted: W-991 1, 50, 100 nM; second insectary; Fig S7C-D. On the procedure: These assays were performed at the Walter and Eliza Hall Institute and at the London School of Hygiene and Tropical Medicine using slightly different approaches which are described in the Supplementary Information. […]
Gametocyte culturing and standard membrane feeding assay (London School of Hygiene and Tropical Medicine). P. falciparum NF54 gametocytes were prepared for blood-feeding to mosquitoes according to the method described by 13, with some slight modifications. Briefly, gametocyte cultures seeded at 2% overall parasitaemia and 4% haematocrit were maintained at 37 °C for 17 days with daily media changes.
Gametocyte functional viability was assessed by ex-flagellation assay at day 14 post induction, observed by light microscopy. An. stephensi (SD500 strain) were reared as […]
Gametocyte aliquots from a single NF54 culture, produced as above, were incubated […]
or culture medium only (no -drug control) from day 14 until day 17 when SMFA was carried out. Fresh drug -containing media was provided each day during this exposure.
Pots of 70 -80 two- to five-day old female An. stephensi mosquitoes were allowed to feed on 500 µL of the respective culture+drug mixture, presented to each pot in a pre - heated 3D -printed water channel membrane feeder 15, until fully fed. […]

Where “and” joins values, the source holds several entries; their conditions need not be identical. Equal entries are not always repeated. Entries after “also recorded” stand apart in the source; their conditions may differ.

As for `Cc1cc(Cl)c(S(=O)(=O)N2CCCC2)cc1OCC(=O)NC1CCCCC1` [M-833], the “effect on merozoite invasion and ring differentiation” value in assay [1] was “invasion itself was slowed down but not reduced; also recorded: failed to differentiate into an amoeboid ring-stage parasite”.
Consider `CC(C)(Nc1ccc(Cl)c(S(=O)(=O)N2CCOCC2)c1)C(=O)Nc1ccc(F)c(Cl)c1` [W-991], for which the “P. berghei sporozoite invasion” value in assay [2] (2 h incubation with HC-04 cells, p > 0.05) is “showed no defect in invasion; also recorded: had no impact”. Moreover, in assay [2] (count of sporozoites inside cells, Replicate 1 and 2), the “Liver stage invasion assay: in” value is 58 and 121. For the same compound, in assay [2] (count of sporozoites outside cells, Replicate 1 and 2), the “Liver stage invasion assay: out” value is 92 and 153. In addition, the “Liver stage invasion assay: ratio” value in assay [2] (in relative to in + out, Replicate 1 and 2) was 38.6667 and 44.1606. Further, the “transmission to mosquitoes” value in assay [3] is recorded as “reduction in transmission”.

Values taken from article PMC11189555, “Aryl amino acetamides prevent Plasmodium falciparum ring development via targeting the lipid-transfer protein PfSTART1” (Nature Communications, 2024).
